We go through 31 compounds from patent US10005767B2, “Compositions and methods for inhibition of the JAK pathway” (Rigel Pharmaceuticals, Inc., priority 2009, dated 2018).

The structures appear in SMILES notation. Where a name gives a salt, the structure may show the parent alone.

What is called IC50 is the point on the concentration scale where inhibition reaches its midpoint.

In the first assay the test system is human primary T-cells, IL-2 stimulated proliferation (JAK-1 and JAK-3 dependent; reported as JAK3 activity). Nature of the assay: Human primary T-cell proliferation stimulated by IL-2 (Example 3). It is filed as cell-based. The following applies: Homo sapiens, T-cell, tested under conditions described in Example 3 (IL-2 stimulated human primary T-cell proliferation); read-out: ability to inhibit JAK3 activity, IC50 range (Table V). The gist of the method: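 Peripheral-blood human T-cells pre-activated via TCR/CD28, IL-2-starved overnight, then cultured 72 h at 37 °C with compound in Yssel's medium containing IL-2 (80 U/mL in cell suspension). Proliferation read as viable-cell ATP by CellTiter-Glo luminescence; reduction versus control taken as JAK pathway inhibition.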
Take `Cc1cnc(Nc2ccc(C(=O)N(C)C)cc2)nc1Nc1ccc2oc(=O)[nH]c2c1` [Compound I-132, N,N-Dimethyl-4-[5-methyl-4-(2-oxo-2,3-dihydro-benzooxazol-5-ylamino)-pyrimidin-2-ylamino]-benzamide]: the 50% inhibitory concentration (IC50) is below 500 nM.

Turning to `Cc1cnc(Nc2ccc(NCC3CC3)nc2)nc1Nc1ccc2oc(=O)[nH]c2c1` [II-74, 5-(2-(6-(cyclopropylmethylamino)pyridin-3-ylamino)-5-methylpyrimidin-4-ylamino)benzo[d]oxazol-2(3H)-one], the IC50 is below 500 nM.

Regarding `Cc1cnc(Nc2ccc(C(=O)Nc3ccccc3)cc2)nc1Nc1ccc2oc(=O)[nH]c2c1` [Compound I-135, 4-[5-Methyl-4-(2-oxo-2,3-dihydro-benzooxazol-5-ylamino)-pyrimidin-2-ylamino]-N-phenyl-benzamide], the IC50 was below 500 nM.

With `Cc1cnc(Nc2ccc(NS(C)(=O)=O)nc2)nc1Nc1ccc2oc(=O)n(C)c2c1` [II-79, N-(5-(5-methyl-4-(3-methyl-2-oxo-2,3-dihydrobenzo[d]oxazol-5-ylamino)pyrimidin-2-ylamino)pyridin-2-yl)methanesulfonamide], the IC50 was below 500 nM.

On to `Cc1cnc(Nc2cc(F)ccc2F)nc1Nc1ccc2oc(=O)[nH]c2c1` [Compound I-466, 5-[2-(2,5-Difluoro-phenylamino)-5-methyl-pyrimidin-4-ylamino]-3H-benzooxazol-2-one], for which the IC50 was below 500 nM.

Turning to `Cc1cc(C)c(Nc2ncc(C)c(Nc3ccc4oc(=O)[nH]c4c3)n2)c(C)c1` [IV-61, 5-[5-Methyl-2-(2,4,6-trimethyl-phenylamino)-pyrimidin-4-ylamino]-3H-benzooxazol-2-one], the IC50 was above 10000 nM.

Turning to `CCOc1cc(Nc2ncc(C)c(Nc3ccc4oc(=O)[nH]c4c3)n2)ccc1Cl` [Compound I-182, 5-[2-(4-Chloro-3-ethoxy-phenylamino)-5-methyl-pyrimidin-4-ylamino]-3H-benzooxazol-2-one], the half-inhibitory concentration (IC50) is below 500 nM.

For `Cc1cnc(Nc2ccc(N3CCC[C@@H](N(C)C(=O)OC(C)(C)C)C3)nc2)nc1Nc1ccc2oc(=O)[nH]c2c1` [II-91, (R)-tert-butyl methyl(1-(5-(5-methyl-4-(2-oxo-2,3-dihydrobenzo[d]oxazol-5-ylamino)pyrimidin-2-ylamino)pyridin-2-yl)piperidin-3-yl)carbamate], the IC50 was below 500 nM.

In the case of `COc1cc(Nc2ncc(C)c(Nc3ccc4oc(=O)[nH]c4c3)n2)cc(C(=O)N(C)C)c1` [Compound I-252, 3-methoxy-N,N-dimethyl-5-(5-methyl-4-(2-oxo-2,3-dihydrobenzo[d]oxazol-5-ylamino)pyrimidin-2-ylamino)benzamide], the half-inhibitory concentration (IC50) is below 500 nM.

On to `COc1cc(Nc2ncc(C)c(Nc3ccc4oc(=O)[nH]c4c3)n2)cc(C(C)NC2CC2)c1` (stereo not shown) [Compound I-233, 5-(2-(3-(1-(cyclopropylamino)ethyl)-5-methoxyphenylamino)-5-methylpyrimidin-4-ylamino)benzo[d]oxazol-2(3H)-one], for which the IC50 was below 500 nM.

In the case of `COc1ncc(Nc2ncc(C)c(Nc3ccc4oc(=O)[nH]c4c3)n2)cc1C(F)(F)F` [II-147, N2-(2-methoxy-3-trifluoromethylpyridin-5-yl)-5-methyl-N4-(2-oxo-2,3-dihydro-1,3-benzoxazol-5-yl)-2,4-pyrimidinediamine], the 50% inhibitory concentration (IC50) was below 500 nM.

Consider `COc1cc(Nc2ncc(C)c(Nc3ccc4oc(=O)[nH]c4c3)n2)ccc1C(=O)N1CCN(C)CC1` [Compound I-270, 5-(2-(3-methoxy-4-(4-methylpiperazine-1-carbonyl)phenylamino)-5-methylpyrimidin-4-ylamino)benzo[d]oxazol-2(3H)-one], for which the 50% inhibitory concentration (IC50) was below 500 nM.

For `COc1ccc(F)c(Nc2ncc(C)c(Nc3ccc4oc(=O)[nH]c4c3)n2)c1` [Compound I-533, 5-(2-(2-fluoro-5-methoxyphenylamino)-5-methylpyrimidin-4-ylamino)benzo[d]oxazol-2(3H)-one], the IC50 is below 500 nM.

For `Cc1cnc(Nc2cnc(C3NCC4CCCCC43)c(Cl)c2)nc1Nc1ccc2oc(=O)[nH]c2c1` (stereo not shown) [II-122, N2-[3-chloro-2-(octahydroisoindol-1-yl)pyridin-5-yl]-5-methyl-N4-(2-oxo-2,3-dihydro-1,3-benzoxazol-5-yl)-2,4-pyrimidinediamine], the half-maximal inhibitory concentration (IC50) was below 500 nM.

Regarding `Cc1cnc(Nc2cnc(N3C[C@@H]4C[C@H]3CN4C)c(C)c2)nc1Nc1ccc2oc(=O)[nH]c2c1` [II-28, N4-(benzoxazolin-2-on-5-yl)-N2-[3-methyl-2-((1S,4S)-5-methyl-2,5-diazabicyclo[2.2.1]heptan-2-yl)pyridin-5-yl]-5-methylpyrimidine-2,4-diamine], the concentration for half-maximal inhibition (IC50) was below 500 nM.

Turning to `Cc1cnc(Nc2ccc(N3CCN(C)CC3)nc2)nc1Nc1ccc2c(c1)oc(=O)n2C` [II-23, N2-(6-(4-methylpiperazin-1-yl)pyridin-3-yl)-N4-(3-methyl-2-oxo-2,3-dihydrobenzo[d]oxazol-6-yl)-5-methylpyrimidine-2,4-diamine trifluoroacetate salt], the half-inhibitory concentration (IC50) was below 500 nM.

Take `Cc1cnc(Nc2ccc3c(c2)N(C)C(=O)CCC3)nc1Nc1ccc2oc(=O)[nH]c2c1` [IV-30, 5-(5-methyl-2-(1-methyl-2-oxo-2,3,4,5-tetrahydro-1H-benzo[b]azepin-8-ylamino)pyrimidin-4-ylamino)benzo[d]oxazol-2(3H)-one]: the IC50 was below 500 nM.

For `Cc1cnc(Nc2ccnc(N3CCN(C)CC3)c2)nc1Nc1ccc2oc(=O)[nH]c2c1` [IV-8, N4-(benzo[d]oxazol-2(3H)-on-5-yl)-N2-[2-(4-methylpiperazino)pyridin-4-yl]-5-methylpyrimidine-2,4-diamine], the half-maximal inhibitory concentration (IC50) was above 10000 nM.

Turning to `Cc1cnc(Nc2ccc3ccccc3c2)nc1Nc1ccc2oc(=O)[nH]c2c1` [IV-54, 5-[5-Methyl-2-(naphthalen-2-ylamino)-pyrimidin-4-ylamino]-3H-benzooxazol-2-one], the IC50 is below 500 nM.

Consider `Cc1ccc(Nc2ncc(C)c(Nc3ccc4oc(=O)[nH]c4c3)n2)cc1` [Compound I-421, 5-(2-(p-toluidino)-5-methylpyrimidin-4-ylamino)benzo[d]oxazol-2(3H)-one], for which the IC50 is below 500 nM.

The same assay, now with this note: tested under conditions described in Example 3 (IL-2 stimulated human primary T-cell proliferation); read-out: ability to inhibit JAK3 activity, IC50 range (Table V).
For `Cc1cnc(Nc2ccc(C#N)c(C(F)(F)F)c2)nc1Nc1ccc2oc(=O)[nH]c2c1` [Compound I-303, N2-(4-cyano-3-trifluoromethyl)phenyl-5-methyl-N4-(2-oxo-2,3-dihydro-1,3-benzoxazol-5-yl)-2,4-pyrimidinediamine], the concentration for half-maximal inhibition (IC50) was below 500 nM.

For the compound `Cc1cnc(Nc2cc(Cl)c(OC(F)F)c(Cl)c2)nc1Nc1ccc2oc(=O)[nH]c2c1` [Compound I-348, N2-(3,5-dichloro-4-difluoromethoxy)phenyl-5-methyl-N4-(2-oxo-2,3-dihydro-1,3-benzoxazol-5-yl)-2,4-pyrimidinediamine], the half-maximal inhibitory concentration (IC50) is below 500 nM.

Take `Cc1cnc(Nc2cc(F)cc(C(F)(F)F)c2)nc1Nc1ccc2oc(=O)[nH]c2c1` [Compound I-162, 5-[2-(3-Fluoro-5-trifluoromethyl-phenylamino)-5-methyl-pyrimidin-4-ylamino]-3H-benzooxazol-2-one triflouroacetate salt]: the IC50 was above 10000 nM.

With `Cc1cnc(Nc2cccc(S(N)(=O)=O)c2)nc1Nc1ccc2oc(=O)n(C)c2c1` [Compound I-67, N2-((3-aminosulfonyl)phenyl)-N4-(3-methyl-2-oxo-2,3-dihydrobenzo[d]oxazol-5-yl)-5-methylpyrimidine-2,4-diamine], the concentration for half-maximal inhibition (IC50) is below 500 nM.

As for `Cc1cnc(Nc2cccc(S(C)(=O)=O)c2)nc1Nc1ccc2c(c1)oc(=O)n2C` [Compound I-65, N2-((3-methylsulfonyl)phenyl)-N4-(3-methyl-2-oxo-2,3-dihydrobenzo[d]oxazol-6-yl)-5-methylpyrimidine-2,4-diamine], the half-maximal inhibitory concentration (IC50) is below 500 nM.

In the case of `Cc1cnc(Nc2cccc(N3CCOCC3)c2)nc1Nc1ccc2oc(=O)[nH]c2c1` [Compound I-46, N4-(benzo[d]oxazol-2(3H)-on-5-yl)-N2-((3-morpholinyl)phenyl)-5-methylpyrimidine-2,4-diamine], the IC50 is below 500 nM.

For `Cc1cnc(Nc2ccc(NS(C)(=O)=O)cc2)nc1Nc1ccc2c(c1)oc(=O)n2C` [Compound I-74, N2-((4-methylsulfonylamino)phenyl)-N4-(3-methyl-2-oxo-2,3-dihydrobenzo[d]oxazol-6-yl)-5-methylpyrimidine-2,4-diamine], the IC50 was below 500 nM.

Consider `Cc1cnc(Nc2ccc(C)c(C)c2F)nc1Nc1ccc2oc(=O)[nH]c2c1` [Compound I-493, N2-(3,4-dimethyl-2-fluoro)phenyl-5-methyl-N4-(2-oxo-2,3-dihydro-1,3-benzoxazol-5-yl)-2,4-pyrimidinediamine], for which the IC50 was below 500 nM.

Consider `Cc1cc(Nc2ncc(C)c(Nc3ccc4oc(=O)[nH]c4c3)n2)ccc1N1CCN2CCCCC2C1` (stereo not shown) [Compound I-122, N4-(benzo[d]oxazol-2(3H)-on-5-yl)-N2-((4-(dihydro-1H-pyrido[1,2-a]pyrazin-2(6H,7H,8H,9H,9aH)-yl)-3-methyl)phenyl)-5-methylpyrimidine-2,4-diamine], for which the IC50 is below 500 nM.

For `Cc1cnc(Nc2ccc(OC(F)F)cc2)nc1Nc1ccc2oc(=O)[nH]c2c1` [Compound I-311, N2-(4-difluoromethoxy)phenyl-5-methyl-N4-(2-oxo-2,3-dihydro-1,3-benzoxazol-5-yl)-2,4-pyrimidinediamine], the IC50 is below 500 nM.

As to `COc1ccc(Nc2ncc(C)c(Nc3ccc4oc(=O)[nH]c4c3)n2)cc1OCCN(C)C` [Compound I-300, N2-{4-methoxy-3-[2-(dimethylamino)ethoxy]}phenyl-5-methyl-N4-(2-oxo-2,3-dihydro-1,3-benzoxazol-5-yl)-2,4-pyrimidinediamine], the half-maximal inhibitory concentration (IC50) is below 500 nM.
